# Test results: patent publication US20240083857A1, “2-Methyl-Quinazolines” (Bayer Pharma Aktiengesellschaft, priority 2017, published 2024)
# Structures can show the parent of a compound that is named as a salt.
# Key:
# [1] = target: Epidermal Growth Factor Receptor (EGFR) (Homo sapiens (Human), UniProt P00533); assay: EGFR kinase assay (TR-FRET); assay type: biochemical; conditions: values given in μM; read-out: EGFR kinase inhibition IC50
# Outline: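 EGFR purified from A431 cells was preincubated with compound 15 min at 22° C in pH 7.0 Hepes buffer with MgCl2, MnCl2 and vanadate before reaction with a biotinylated peptide. After EDTA stop, phosphopeptide was detected by TR-FRET (anti-phosphotyrosine Tb-cryptate, streptavidin-XL665) as the 665/620 nm emission ratio.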
# [2] = target: human SOS1 (loading of human K-Ras^G12C-GDP with fluorescent GTP-analog) (Homo sapiens, UniProt Q07889); assay: Biochemical assay 3: K-Ras^G12C activation assay by hSOS1 (HTRF); conditions: no GTP; for IC50: read-out: Assay 3 (KRAS-Activation by SOS no GTP) activity expressed as IC50
# Chain of Epidermal Growth Factor Receptor (EGFR) (P00533 25-1210): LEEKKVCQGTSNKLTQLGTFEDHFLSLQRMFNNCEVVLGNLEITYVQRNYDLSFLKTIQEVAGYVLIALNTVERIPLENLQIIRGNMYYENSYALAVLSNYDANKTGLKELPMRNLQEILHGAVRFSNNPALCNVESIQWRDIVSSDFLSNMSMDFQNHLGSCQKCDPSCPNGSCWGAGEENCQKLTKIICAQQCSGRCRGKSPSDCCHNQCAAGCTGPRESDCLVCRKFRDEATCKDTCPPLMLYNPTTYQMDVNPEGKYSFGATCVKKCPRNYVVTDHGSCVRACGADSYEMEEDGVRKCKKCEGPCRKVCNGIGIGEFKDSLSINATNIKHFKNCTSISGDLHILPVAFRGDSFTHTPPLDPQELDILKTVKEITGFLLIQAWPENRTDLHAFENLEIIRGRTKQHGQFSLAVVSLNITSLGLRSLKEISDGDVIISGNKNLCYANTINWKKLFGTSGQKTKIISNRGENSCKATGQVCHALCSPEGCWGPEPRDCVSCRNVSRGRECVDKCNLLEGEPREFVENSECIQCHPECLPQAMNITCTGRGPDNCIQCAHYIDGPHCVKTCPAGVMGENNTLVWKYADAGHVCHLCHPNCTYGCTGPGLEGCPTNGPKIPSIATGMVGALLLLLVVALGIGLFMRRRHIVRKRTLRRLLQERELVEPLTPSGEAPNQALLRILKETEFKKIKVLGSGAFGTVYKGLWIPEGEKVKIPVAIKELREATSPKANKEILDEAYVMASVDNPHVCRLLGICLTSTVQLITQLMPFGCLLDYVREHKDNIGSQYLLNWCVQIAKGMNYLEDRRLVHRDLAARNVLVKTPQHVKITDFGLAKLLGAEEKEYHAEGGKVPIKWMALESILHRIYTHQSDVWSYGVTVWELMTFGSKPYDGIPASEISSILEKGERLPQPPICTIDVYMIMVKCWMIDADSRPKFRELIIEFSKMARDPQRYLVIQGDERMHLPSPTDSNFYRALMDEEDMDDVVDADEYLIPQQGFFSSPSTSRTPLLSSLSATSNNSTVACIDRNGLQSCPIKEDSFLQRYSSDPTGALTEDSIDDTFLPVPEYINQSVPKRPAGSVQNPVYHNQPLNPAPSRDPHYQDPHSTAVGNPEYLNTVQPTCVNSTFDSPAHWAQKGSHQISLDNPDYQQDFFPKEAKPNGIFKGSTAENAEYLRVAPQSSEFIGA
SMILES,IC50 [1] [µM],IC50 [2] [µM],"inhibition at 20 µM ([2]; read-out: Assay 3 (KRAS-Activation by SOS no GTP) activity expressed as % inhibition at 20 μM, at 20 μM) [%]"
"COc1cc2nc(C)nc(NC(C)c3ccc(-c4ccccc4CNCC(=O)N4CCOCC4)s3)c2cc1OC (stereo not shown) [Example 285, 2-{[2-(5-{1-[(6,7-dimethoxy-2-methylquinazolin-4-yl)amino]ethyl}thiophen-2-yl)benzyl]amino}-1-(morpholin-4-yl)ethanone]",> 20,0.161,–
"COc1cc2nc(C)nc(NC(C)c3ccc(-c4cc(C)n(C)c4C#N)s3)c2cc1OC (stereo not shown) [Example 286, 3-(5-{1-[(6,7-dimethoxy-2-methylquinazolin-4-yl)amino]ethyl}thiophen-2-yl)-1,5-dimethyl-1H-pyrrole-2-carbonitrile]",> 20,–,36
"COc1cc2nc(C)nc(NC(C)c3ccc(-c4cscc4C#N)s3)c2cc1OC (stereo not shown) [Example 287, 5-{1-[(6,7-dimethoxy-2-methylquinazolin-4-yl)amino]ethyl}-2,3′-bithiophene-4′-carbonitrile]",> 20,5.76,–
"CCN(CC)Cc1ccccc1-c1ccc(C(C)Nc2nc(C)nc3cc(OC)c(OC)cc23)s1 (stereo not shown) [Example 288, N-[1-(5-{2-[(diethylamino)methyl]phenyl}thiophen-2-yl)ethyl]-6,7-dimethoxy-2-methylquinazolin-4-amine]",> 20,0.247,–
"COc1cc2nc(C)nc(NC(C)c3ccc(-c4ccccc4CN4CCCC(C(N)=O)C4)s3)c2cc1OC (stereo not shown) [Example 290, 1-[2-(5-{1-[(6,7-dimethoxy-2-methylquinazolin-4-yl)amino]ethyl}thiophen-2-yl)benzyl]piperidine-3-carboxamide]",> 20,0.159,–
"COc1cc2nc(C)nc(NC(C)c3ccc(-c4ccccc4CN(C)CC(F)F)s3)c2cc1OC (stereo not shown) [Example 291, N-{1-[5-(2-{[(2,2-difluoroethyl)(methyl)amino]methyl}phenyl)thiophen-2-yl]ethyl}-6,7-dimethoxy-2-methylquinazolin-4-amine]",> 20,2.23,–
"COc1cc2nc(C)nc(NC(C)c3ccc(-c4cc(Cl)ccc4CN)s3)c2cc1OC (stereo not shown) [Example 292, N-[1-{5-[2-(aminomethyl)-5-chlorophenyl]thiophen-2-yl}ethyl]-6,7-dimethoxy-2-methylquinazolin-4-amine]",> 20,0.0413,–
"COc1cc2nc(C)nc(NC(C)c3ccc(-c4ccc(F)cc4CNC(=O)c4ncc[nH]4)s3)c2cc1OC (stereo not shown) [Example 293, N-[2-(5-{1-[(6,7-dimethoxy-2-methylquinazolin-4-yl)amino]ethyl}thiophen-2-yl)-5-fluorobenzyl]-1H-imidazole-2-carboxamide]",> 20,8.2,–
"COc1cc2nc(C)nc(NC(C)c3ccc(-c4ccc(F)cc4CNC(=O)c4cnc[nH]4)s3)c2cc1OC (stereo not shown) [Example 294, N-[2-(5-{1-[(6,7-dimethoxy-2-methylquinazolin-4-yl)amino]ethyl}thiophen-2-yl)-5-fluorobenzyl]-1H-imidazole-5-carboxamide]",> 20,8.58,–
"COc1cc2nc(C)nc(NC(C)c3ccc(-c4ccc(F)cc4CNC(=O)CNCC(F)(F)F)s3)c2cc1OC (stereo not shown) [Example 295, N-[2-(5-{1-[(6,7-dimethoxy-2-methylquinazolin-4-yl)amino]ethyl}thiophen-2-yl)-5-fluorobenzyl]-N^2-(2,2,2-trifluoroethyl)glycinamide]",> 20,2.78,–
"COc1cc2nc(C)nc(NC(C)c3ccc(-c4ccccc4CNCCO)s3)c2cc1OC (stereo not shown) [Example 297, 2-{[2-(5-{1-[(6,7-dimethoxy-2-methylquinazolin-4-yl)amino]ethyl}thiophen-2-yl)benzyl]amino}ethanol]",> 20,0.0606,–
"COc1cc2nc(C)nc(NC(C)c3ccc(-c4ccccc4CN(C)CCO)s3)c2cc1OC (stereo not shown) [Example 298, 2-{[2-(5-{1-[(6,7-dimethoxy-2-methylquinazolin-4-yl)amino]ethyl}thiophen-2-yl)benzyl](methyl)amino}ethanol]",> 20,0.0588,–
"COc1cc2nc(C)nc(NC(C)c3ccc(-c4ccc(F)cc4CNC(=O)CNc4ccccc4)s3)c2cc1OC (stereo not shown) [Example 299, N-[2-(5-{1-[(6,7-dimethoxy-2-methylquinazolin-4-yl)amino]ethyl}thiophen-2-yl)-5-fluorobenzyl]-N^2-phenylglycinamide]",> 20,1.88,–
"COc1cc2nc(C)nc(NC(C)c3ccc(-c4ccccc4CNCC(F)(F)F)s3)c2cc1OC (stereo not shown) [Example 300, 6,7-di methoxy-2-methyl-N-{1-[5-(2-{[(2,2,2-trifluoroethyl)amino]methyl}phenyl)thiophen-2-yl]ethyl}quinazolin-4-amine]",> 20,5.08,–
"COc1cc2nc(C)nc(NC(C)c3ccc(-c4ccccc4CNc4ccccn4)s3)c2cc1OC (stereo not shown) [Example 301, 6,7-di methoxy-2-methyl-N-[1-(5-{2-[(pyridin-2-ylamino)methyl]phenyl}thiophen-2-yl)ethyl]quinazolin-4-amine]",> 20,1.93,–
"COc1cc2nc(C)nc(NC(C)c3ccc(-c4ccccc4CNc4cc[nH]n4)s3)c2cc1OC (stereo not shown) [Example 302, 6,7-dimethoxy-2-methyl-N-[1-(5-{2-[(1H-pyrazol-3-ylamino)methyl]phenyl}thiophen-2-yl)ethyl]quinazolin-4-amine]",> 20,1.54,–
"COc1cc2nc(C)nc(NC(C)c3ccc(-c4ccccc4CNCC(=O)N4CCc5ccccc5C4)s3)c2cc1OC (stereo not shown) [Example 303, 1-(3,4-dihydroisoquinolin-2(1H)-yl)-2-{[2-(5-{1-[(6,7-dimethoxy-2-methylquinazolin-4-yl)amino]ethyl}thiophen-2-yl)benzyl]amino}ethanone]",> 20,0.88,–
"COc1cc2nc(C)nc(NC(C)c3ccc(-c4ccc(F)cc4CNCc4nccn4C)s3)c2cc1OC (stereo not shown) [Example 304, N-[1-{5-[4-fluoro-2-({[(1-methyl-1H-imidazol-2-yl)methyl]amino}methyl)phenyl]thiophen-2-yl}ethyl]-6,7-dimethoxy-2-methylquinazolin-4-amine]",> 20,0.399,–
"COc1cc2nc(C)nc(NC(C)c3ccc(-c4ccccc4CN4CCNCC4)s3)c2cc1OC (stereo not shown) [Example 305, 6,7-dimethoxy-2-methyl-N-[1-{5-[2-(piperazin-1-ylmethyl)phenyl]thiophen-2-yl}ethyl]quinazolin-4-amine hydrochloride]",> 20,0.0584,–
"COc1cc2nc(C)nc(NC(C)c3ccc(-c4ccc(F)cc4CNC(C)=O)s3)c2cc1OC (stereo not shown) [Example 307, N-[2-(5-{1-[(6,7-dimethoxy-2-methylquinazolin-4-yl)amino]ethyl}thiophen-2-yl)-5-fluorobenzyl]acetamide]",> 20,0.78,–
"COc1cc2nc(C)nc(NC(C)c3ccc(-c4ccccc4CN4CCN(C)CC4)s3)c2cc1OC (stereo not shown) [Example 308, 6,7-dimethoxy-2-methyl-N-[1-(5-{2-[(4-methylpiperazin-1-yl)methyl]phenyl}thiophen-2-yl)ethyl]quinazolin-4-amine]",> 20,0.22,–
"COc1cc2nc(C)nc(NC(C)c3ccc(-c4ccccc4CN[C@H]4CCN(C)C4=O)s3)c2cc1OC (stereo partly drawn) [Example 309, (3S)-{[2-(5-{1-[(6,7-dimethoxy-2-methylquinazolin-4-yl)amino]ethyl}thiophen-2-yl)benzyl]amino}-1-methylpyrrolidin-2-one]",> 20,0.88,–
"COc1cc2nc(C)nc(NC(C)c3ccc(-c4ccc(F)cc4CNC(=O)c4cc[nH]n4)s3)c2cc1OC (stereo not shown) [Example 310, N-[2-(5-{1-[(6,7-dimethoxy-2-methylquinazolin-4-yl)amino]ethyl}thiophen-2-yl)-5-fluorobenzyl]-1H-pyrazole-3-carboxamide]",> 20,5.76,–
"COc1cc2nc(C)nc(NC(C)c3ccc(-c4ccccc4CN4CCOCC4)s3)c2cc1OC (stereo not shown) [Example 311, 6,7-dimethoxy-2-methyl-N-[1-{5-[2-(morpholin-4-ylmethyl)phenyl]thiophen-2-yl}ethyl]quinazolin-4-amine]",> 20,0.629,–
"COc1cc2nc(C)nc(NC(C)c3ccc(-c4ccccc4CN4CC(O)C4)s3)c2cc1OC (stereo not shown) [Example 312, 1-[2-(5-{1-[(6,7-dimethoxy-2-methylquinazolin-4-yl)amino]ethyl}thiophen-2-yl)benzyl]azetidin-3-ol]",> 20,0.0732,–
"COc1cc2nc(C)nc(NC(C)c3ccc(-c4ccccc4CN4CC5(CNC(=O)N5)C4)s3)c2cc1OC (stereo not shown) [Example 313, 2-[2-(5-{1-[(6,7-dimethoxy-2-methylquinazolin-4-yl)amino]ethyl}thiophen-2-yl)benzyl]-2,5,7-triazaspiro[3.4]octan-6-one]",> 20,0.15,–
"COc1cc2nc(C)nc(NC(C)c3ccc(-c4ccc(F)cc4CNC(=O)[C@@H]4CCCN4)s3)c2cc1OC (stereo partly drawn) [Example 314, N-[2-(5-{1-[(6,7-dimethoxy-2-methylquinazolin-4-yl)amino]ethyl}thiophen-2-yl)-5-fluorobenzyl]-L-prolinamide]",> 20,0.0901,–
"COc1cc2nc(C)nc(NC(C)c3ccc(-c4ccccc4CNCC(F)F)s3)c2cc1OC (stereo not shown) [Example 315, N-{1-[5-(2-{[(2,2-difluoroethyl)amino]methyl}phenyl)thiophen-2-yl]ethyl}-6,7-dimethoxy-2-methylquinazolin-4-amine]",> 20,1.28,–
"COc1cc2nc(C)nc(NC(C)c3ccc(-c4ccccc4CN4CCC4)s3)c2cc1OC (stereo not shown) [Example 317, N-[1-{5-[2-(azetidin-1-ylmethyl)phenyl]thiophen-2-yl}ethyl]-6,7-dimethoxy-2-methylquinazolin-4-amine]",> 20,0.0884,–
